In ChEMBL document CHEMBL4765259, “Synthesis and biological evaluation of novel shikonin-benzo[b]furan derivatives as tubulin polymerization inhibitors targeting the colchicine binding site” (Eur J Med Chem, 2020):
Activity calls are given as the source filed them. No cut-off for these calls is given here.

How the values were obtained:
[1] = Mean residence time (0 to infinity) in Sprague-Dawley rat at 1.5 mg/kg, iv by UPLC/MS analysis; assay type: ADME, organism-based; conditions: in vivo
[2] = AUC (0 to infinity) in Sprague-Dawley rat at 1.5 mg/kg, iv by UPLC/MS analysis; assay type: ADME, organism-based; design: time infinity, route intravenous, dose 1.5 mg/kg; conditions: in vivo
[3] = Apparent volume of distribution in Sprague-Dawley rat at 1.5 mg/kg, iv by UPLC/MS analysis; assay type: ADME, organism-based; conditions: in vivo, read-out: Vz
[4] = Half life in Sprague-Dawley rat at 1.5 mg/kg, iv by UPLC/MS analysis; assay type: ADME, organism-based; conditions: in vivo
[5] = system: HT-29; assay: Induction of microtubule disruption in human HT-29 cells at 0.5 uM incubated for 24 hrs by DAPI staining based confocal fluorescence microscopic analysis; assay type: cell-based
[6] = system: HT-29; assay: Cell cycle arrest in human HT29 cells assessed as cell accumulation at S phase at 0.5 uM incubated for 24 hrs by propidium iodide staining based flow cytometry (reference value: […] %); assay type: functional
[7] = Antiproliferative activity against human LO2 cells incubated for 48 hrs by MTT assay; assay type: cell-based, L02
[8] = system: MDA-MB-231; assay: cells; conditions: Homo sapiens, MDA-MB-231, 48 h
[9] = system: HT-29; assay: Cell cycle arrest in human HT29 cells assessed as cell accumulation at S phase at […] incubated for 24 hrs by propidium iodide staining based flow cytometry (reference value: […] %); assay type: functional; conditions: dose 0.25 µM
[10] = system: K562; assay: Antiproliferative activity against drug resistant human K562 cells incubated for 48 hrs by MTT assay; assay type: functional, cell-based; conditions: K562, 48 h
[11] = system: HT-29; assay: Cell cycle arrest in human HT29 cells assessed as cell accumulation at G2 phase at 1 uM incubated for 24 hrs by propidium iodide staining based flow cytometry (reference value: […]); assay type: functional
[12] = system: HT-29; assay: Induction of apoptosis in human HT-29 cells assessed as viable cells at […] measured after 24 hrs by Annexin V-FITC/propidium iodide staining based flow cytometry (reference value: 98.3 %); assay type: functional; conditions: dose 0.25 µM, read-out: Activity
[13] = system: HepG2; assay: Antiproliferative activity against human HepG2 cells incubated for 48 hrs by MTT assay; assay type: functional, cell-based; conditions: HepG2, 48 h
[14] = system: HT-29; assay: Cell cycle arrest in human HT29 cells assessed as cell accumulation at G2 phase at […] incubated for 24 hrs by propidium iodide staining based flow cytometry (reference value: […]); assay type: functional; conditions: dose 0.25 µM
[15] = Antiproliferative activity against human HEK293T cells incubated for 48 hrs by MTT assay; assay type: cell-based, HEK-293T
[16] = system: HT-29; assay: Cell cycle arrest in human HT29 cells assessed as cell accumulation at G2 phase at 0.5 uM incubated for 24 hrs by propidium iodide staining based flow cytometry (reference value: […]); assay type: functional
[17] = system: HT-29; assay: Cell cycle arrest in human HT29 cells assessed as cell accumulation at G1 phase at 1 uM incubated for 24 hrs by propidium iodide staining based flow cytometry (reference value: 69.19 %); assay type: functional
[18] = system: HT-29; assay: Induction of apoptosis in human HT-29 cells assessed as early apoptotic cells at 0.5 uM measured after 24 hrs by Annexin V-FITC/propidium iodide staining based flow cytometry (reference value: 1.6 %); assay type: functional
[19] = system: HT-29; assay: Induction of apoptosis in human HT-29 cells assessed as viable cells at 0.5 uM measured after 24 hrs by Annexin V-FITC/propidium iodide staining based flow cytometry (reference value: 98.3 %); assay type: functional; conditions: read-out: Activity
[20] = system: HT-29; assay: Induction of apoptosis in human HT-29 cells assessed as necrotic cells at 0.5 uM measured after 24 hrs by Annexin V-FITC/propidium iodide staining based flow cytometry (reference value: 0.1 %); assay type: functional
[21] = system: HT-29; assay: Induction of apoptosis in human HT-29 cells assessed as necrotic cells at 1 uM measured after 24 hrs by Annexin V-FITC/propidium iodide staining based flow cytometry (reference value: 0.1 %); assay type: functional
[22] = system: HT-29; assay: Cell cycle arrest in human HT29 cells assessed as cell accumulation at G1 phase at […] incubated for 24 hrs by propidium iodide staining based flow cytometry (reference value: 69.19 %); assay type: functional; conditions: dose 0.25 µM
[23] = system: HT-29; assay: Antiproliferative activity against human HT29 cells incubated for 48 hrs by MTT assay; assay type: functional, cell-based; conditions: HT-29, 48 h
[24] = system: HT-29; assay: Cell cycle arrest in human HT29 cells assessed as cell accumulation at S phase at 1 uM incubated for 24 hrs by propidium iodide staining based flow cytometry (reference value: […] %); assay type: functional
[25] = system: HT-29; assay: Induction of apoptosis in human HT-29 cells assessed as early apoptotic cells at 1 uM measured after 24 hrs by Annexin V-FITC/propidium iodide staining based flow cytometry (reference value: 1.6 %); assay type: functional
[26] = system: MCF7; assay: cells; conditions: Homo sapiens, MCF7, 48 h
Description: Antiproliferative activity against drug-resistant human MCF7 cells incubated for 48 hrs by MTT assay

[27] = system: HT-29; assay: Induction of apoptosis in human HT-29 cells assessed as late apoptotic cells at 0.5 uM measured after 24 hrs by Annexin V-FITC/propidium iodide staining based flow cytometry (reference value: 0.0 %); assay type: functional
[28] = system: MCF7; assay: cells; conditions: Homo sapiens, MCF7, 48 h; remark: listed apart in the source
[29] = system: K562; assay: cells; conditions: Homo sapiens, K562, 48 h
Description: Antiproliferative activity against human K562 cells incubated for 48 hrs by MTT assay

[30] = system: HT-29; assay: Induction of apoptosis in human HT-29 cells assessed as viable cells at 1 uM measured after 24 hrs by Annexin V-FITC/propidium iodide staining based flow cytometry (reference value: 98.3 %); assay type: functional; conditions: read-out: Activity
[31] = system: HCT-116; assay: cells; conditions: Homo sapiens, HCT-116, 48 h
Description: Antiproliferative activity against human HCT116 cells incubated for 48 hrs by MTT assay

[32] = Inhibition of tubulin polymerization (unknown origin) measured every 2 mins for 60 mins by spectrophotometric method; design: species or system Homo sapiens
[33] = system: A549; assay: cells; conditions: Homo sapiens, A549, 48 h
[34] = system: HT-29; assay: Cell cycle arrest in human HT29 cells assessed as cell accumulation at G1 phase at 0.5 uM incubated for 24 hrs by propidium iodide staining based flow cytometry (reference value: 69.19 %); assay type: functional
[35] = system: HT-29; assay: Induction of apoptosis in human HT-29 cells assessed as late apoptotic cells at […] measured after 24 hrs by Annexin V-FITC/propidium iodide staining based flow cytometry (reference value: 0.0 %); assay type: functional; conditions: dose 0.25 µM
[36] = system: HT-29; assay: Induction of apoptosis in human HT-29 cells assessed as early apoptotic cells at […] measured after 24 hrs by Annexin V-FITC/propidium iodide staining based flow cytometry (reference value: 1.6 %); assay type: functional; conditions: dose 0.25 µM
[37] = system: HT-29; assay: Induction of apoptosis in human HT-29 cells assessed as necrotic cells at […] measured after 24 hrs by Annexin V-FITC/propidium iodide staining based flow cytometry (reference value: 0.1 %); assay type: functional; conditions: dose 0.25 µM
[38] = system: HT-29; assay: Induction of apoptosis in human HT-29 cells assessed as late apoptotic cells at 1 uM measured after 24 hrs by Annexin V-FITC/propidium iodide staining based flow cytometry (reference value: 0.0 %); assay type: functional

Work on `COc1ccc2cc(C(=O)O[C@H](CC=C(C)C)C3=CC(=O)c4c(O)ccc(O)c4C3=O)oc2c1` yielded an MRT inf [1] of 5.12 h, an AUC(0-inf) [2] of 2160 ng·h/mL and a Vd [3] of 3.35 L/kg. For the same molecule, the half-life [4] was 3.81 h.

With `CC(=O)O[C@H]1C(=O)[C@@]2(C)[C@H]([C@H](OC(=O)c3ccccc3)[C@]3(O)C[C@H](OC(=O)[C@H](O)[C@@H](NC(=O)c4ccccc4)c4ccccc4)C(C)=C1C3(C)C)[C@]1(OC(C)=O)CO[C@@H]1C[C@@H]2O` the Activity [5] was “inactive”.

`COc1cc2c(c(OC)c1OC)-c1ccc(OC)c(=O)cc1[C@@H](NC(C)=O)CC2` [COLCHICINE] gave an Activity [6] of 54.64%, a CC50 at 48 h [7] of 9180 nM and an IC50 [8] of 2940 nM. For the same molecule, the Activity [9] was 24.65%, the IC50 [10] was 6590 nM and the Activity [5] was “Active”. It also gave an Activity [11] of 40.41%, a viability at […] [12] of 87% and an IC50 [13] of 1470 nM. For the same molecule, the Activity [14] was 17.73%, the CC50 at 48 h [15] was 8430 nM and the Activity [16] was 18.25%. The Activity [17] was 23.93%, the Activity [18] was 12.1% and the viability at 0.5 µM [19] was 76.1%. The Activity [20] was 1.3%, the Activity [21] was 0.4% and the Activity [22] was 57.62%. The IC50 [23] was 1810 nM, the Activity [24] was 35.66% and the Activity [25] was 15.8%. It also gave an IC50 [26] of 520 nM, an Activity [27] of 10.5% and an IC50 [28] of 110 nM. For the same molecule, the IC50 [29] was 440 nM, the viability at 1 µM [30] was 67.1% and the IC50 [31] was 2130 nM. For the same molecule, the IC50 [32] was 2110 nM, the IC50 [33] was 1170 nM and the Activity [34] was 27.11%. It also gave an Activity [35] of 5.2%, an Activity [36] of 7.6% and an Activity [37] of 0.3%. For the same molecule, the Activity [38] was 16.8%.
